Source: US10081614B2, “Bis(sulfonamide) derivatives and their use as mPGES inhibitors” (Acturum Real Estate AB, priority 2014, dated 2018)

What was measured:
human mPGES-1 = target: T1, human mPGES-1 (Homo sapiens, UniProt O14684); assay: Microsomal prostaglandin E synthase biochemical assay; conditions: microsomes containing human mPGES-1, PGH2 10.8 μM, GSH 2.5 mM, pH 6.8; average of at least n=2
T1 construct: host or cells: microsomes
T1 sequence (O14684 1-152): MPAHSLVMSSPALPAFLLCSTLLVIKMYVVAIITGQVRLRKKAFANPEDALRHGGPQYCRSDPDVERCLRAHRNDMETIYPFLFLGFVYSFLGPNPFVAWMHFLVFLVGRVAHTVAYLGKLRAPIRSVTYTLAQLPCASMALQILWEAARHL
Description: Compounds were tested as inhibitors of microsomal prostaglandin E synthase activity in microsomal prostaglandin E synthase assays and whole cell assays. These assays measure prostaglandin E2 (PGE2) synthesis, which is taken as a measure of prostaglandin E synthase activity. Microsomal prostaglandin E synthase biochemical assays used microsomal prostaglandin E synthase-1 in microsomal preparations. The source of the microsomes can be for example interleukin-1β-stimulated human A549 cells (which express human mPGES-1) or Sf9 cells transfected with plasmids encoding human mPGES-1 cDNA.
A solution of test compound was added to a diluted microsome preparation containing human mPGES-1 and pre-incubated for 15 minutes in potassium phosphate buffer pH 6.8 with cofactor glutathione (GSH). Corresponding solutions without test compound were used as positive controls, and corresponding solutions without test compound and without microsomes were used as negative controls. The enzymatic reaction was then started by addition of the substrate PGH2 in an organic solution (dry acetonitrile).
The typical reaction conditions of the enzymatic reaction were thus: Test compound: ranging from 60 μM to 0.002 μM, or zero in positive and negative controls; potassium phosphate buffer pH 6.8:50 mM; GSH: 2.5 mM; mPGES-1-containing microsomes: 2 μg/mL (sample and positive controls) or 0 μg/mL (negative control); PGH2: 10.8 μM; Acetonitrile: 7.7% (v/v); DMSO: 0.6% (v/v). The reaction was stopped after one minute by adding an acidic solution (pH 1.9) of ferric chloride and citrate (final concentrations 7 mM and 47 mM respectively), by which the PGH2 was sequestered (the PGH2 is reduced to mainly 12-hydroxy heptadecatrineoic acid (12-HHT) which is not detected by the subsequent PGE2 detection step). The resulting solution was then pH neutralized by addition of potassium phosphate buffer, prior to diluting an aliquot of the resulting solution in a weak potassium phosphate buffer (50 mM, pH 6.8) containing 0.2% BSA (w/v). [Adapted from Jacobsson et al., Proc. Natl. Acad. Sci. USA, 1999, vol. 96, pp. 7220-7225] The PGE2 formed was quantified by use of a commercial HTRF based kit (catalogue #62PG2PEC or #62P2APEC from Cisbio International). 100% activity was defined as the PGE2 production in positive controls subtracted by the PGE2 production in the negative controls. IC50 values were then determined using standard procedures.
The potency is expressed as IC50 and the value indicated is an average of at least n=2.

[1] = tested on: mPGES-1-dependent PGE2 production in human blood; assay: Whole blood assay (LPS-stimulated human blood, PGE2 production); type: cell-based; conditions: 0.1 μg/ml LPS, 16 hours at 37° C., PGE2 by HTRF, read-out: hWBA
From the text: The whole blood assay [described by Patrignani, P. et al, Journal of Pharmacology and Experimental Therapeutics, 1994, vol. 271, pp 1705-1712] was used as the whole cell assay for testing the compounds. Whole blood provides a protein and cell rich environment for the study of biochemical efficacy of anti-inflammatory compounds, such as prostaglandin synthase inhibitors. To study the inhibitory activities of these compounds, human blood was stimulated with lipopolysaccharide (LPS) for typically 16 hours to induce mPGES-1 expression, after which the concentration of produced PGE2 was measured by competitive-immuno assay (homogeneous time-resolved fluorescence, HTRF) as read out for effectiveness against mPGES-1-dependent PGE2 production.
Human blood collected from human volunteers in heparinized tubes was incubated with 100 μM acetyl salicylic acid, in order to inhibit the constitutively expressed cyclooxygenase (COX)-1/COX-2 enzymes, and then stimulated with 0.1 μg/ml LPS to induce the expression of enzymes along the COX-2 pathway, e.g. COX-2 and mPGES-1. 100 μL of this blood was added to the wells of a 384-well plate containing 1 μL DMSO solutions of compounds typically in the final concentration range 316 μM to 0.01 μM. Naproxen was used as reference compound. The mix was incubated at 37° C. for 16 hours. Plasma was harvested by centrifugation and stored at −70° C. until further analysis of PGE2 levels. For the calculations, the 0%-activity value was represented by blood treated with acetyl salicylic acid, LPS and the reference compound (1 mM Naproxen). The 100%-activity value was represented by blood treated with aspirin, LPS and DMSO. [Reference: Patrignani, P. et al, Journal of Pharmacology and Experimental Therapeutics, 1994, vol. 271, pp 1705-1712]. The PGE2 formed was quantified, after dilution in a weak potassium phosphate buffer (50 mM, pH 6.8) containing 0.2% BSA (w/v), by use of a commercial HTRF based kit (catalogue #62PG2PEC or #62P2APEC from Cisbio International). IC50 values were then determined using standard procedures.

Structure (SMILES)	IC50 (human mPGES-1) [nM]	IC50 [1] [nM]
NS(=O)(=O)c1ccccc1NS(=O)(=O)CCc1ccc(Br)cc1OCC1CCOCC1 [Example 1, 2-[({2-[4-Bromo-2-(tetrahydro-2H-pyran-4-ylmethoxy)phenyl]ethyl}sulfonyl)amino]benzenesulfonamide]	3.4	63.9
NS(=O)(=O)c1ccccc1NS(=O)(=O)CCc1ccc(Cl)cc1OCC1CCOCC1 [Example 2, 2-[({2-[4-Chloro-2-(tetrahydro-2H-pyran-4-ylmethoxy)phenyl]ethyl}sulfonyl)amino]benzenesulfonamide]	3.5	24.9
NS(=O)(=O)c1ccccc1NS(=O)(=O)CCc1ccc(C(F)(F)F)cc1OCC1CCOCC1 [Example 3, 2-[({2-[2-(Tetrahydro-2H-pyran-4-ylmethoxy)-4-(trifluoromethyl)phenyl]ethyl}sulfonyl)amino]benzenesulfonamide]	4	26.6
Cc1ccc(CCS(=O)(=O)Nc2ccccc2S(N)(=O)=O)c(OCC2CCOCC2)c1 [Example 4, 2-[({2-[4-methyl-2-(tetrahydro-2H-pyran-4-ylmethoxy)phenyl]ethyl}sulfonyl)amino]benzenesulfonamide]	15	154
NS(=O)(=O)c1ccccc1NS(=O)(=O)CCc1ccc(F)cc1OCC1CCOCC1 [Example 5, 2-[({2-[4-Fluoro-2-(tetrahydro-2H-pyran-4-ylmethoxy)phenyl]ethyl}sulfonyl)amino]benzenesulfonamide]	16	89.7
NS(=O)(=O)c1ccccc1NS(=O)(=O)CCc1ccc(Cl)cc1OCC1CCC(F)(F)CC1 [Example 6, 2-{[(2-{4-Chloro-2-[(4,4-difluorocyclohexyl)methoxy]phenyl}ethyl)sulfonyl]amino}benzenesulfonamide]	2.7	11.5
Cc1ccc(CCS(=O)(=O)Nc2ccccc2S(N)(=O)=O)c(OCC2CCC(F)(F)CC2)c1 [Example 7, 2-{[(2-{2-[(4,4-Difluorocyclohexyl)methoxy]-4-methylphenyl}ethyl)sulfonyl]amino}benzenesulfonamide]	7.2	54.1
NS(=O)(=O)c1ccccc1NS(=O)(=O)CCc1ccc(F)cc1OCC1CCC(F)(F)CC1 [Example 8, 2-{[(2-{2-[(4,4-Difluorocyclohexyl)methoxy]-4-fluorophenyl}ethyl)sulfonyl]amino}benzenesulfonamide]	7.6	149
NS(=O)(=O)c1ccccc1NS(=O)(=O)CCc1ccc(C#Cc2ccccc2)cc1OCC1CCOCC1 [Example 9, 2-[({2-[4-(Phenylethynyl)-2-(tetrahydro-2H-pyran-4-ylmethoxy)phenyl]ethyl}sulfonyl)amino]benzenesulfonamide]	3.4	0.911
NS(=O)(=O)c1ccccc1NS(=O)(=O)CCc1ccc(C#CC2CC2)cc1OCC1CCOCC1 [Example 10, 2-[({2-[4-(Cyclopropylethynyl)-2-(tetrahydro-2H-pyran-4-ylmethoxy)phenyl]ethyl}sulfonyl)amino]benzenesulfonamide]	< 2.2	7.92
NS(=O)(=O)c1ccccc1NS(=O)(=O)CCc1ccc(C#CC2CCCC2)cc1OCC1CCOCC1 [Example 11, 2-[({2-[4-(Cyclopentylethynyl)-2-(tetrahydro-2H-pyran-4-ylmethoxy)phenyl]ethyl}sulfonyl)amino]benzenesulfonamide]	2.1	0.987
NS(=O)(=O)c1ccccc1NS(=O)(=O)CCc1ccc(C#CC2CCC2)cc1OCC1CCOCC1 [Example 12, 2-[({2-[4-(cyclobutylethynyl)-2-(tetrahydro-2H-pyran-4-ylmethoxy)phenyl]ethyl}sulfonyl)amino]benzenesulfonamide]	< 2.3	1.84
CC(C)C#Cc1ccc(CCS(=O)(=O)Nc2ccccc2S(N)(=O)=O)c(OCC2CCOCC2)c1 [Example 13, 2-[({2-[4-(3-methylbut-1-yn-1-yl)-2-(tetrahydro-2H-pyran-4-ylmethoxy)phenyl]ethyl}sulfonyl)amino]benzenesulfonamide]	3.4	1.85
Cc1ccc(C#Cc2ccc(CCS(=O)(=O)Nc3ccccc3S(N)(=O)=O)c(OCC3CCOCC3)c2)cc1 [Example 14, 2-{[(2-{4-[(4-Methylphenyl)ethynyl]-2-(tetrahydro-2H-pyran-4-ylmethoxy)phenyl}ethyl)sulfonyl]amino}benzenesulfonamide]	2.1	0.987
CC(C)(C)C#Cc1ccc(CCS(=O)(=O)Nc2ccccc2S(N)(=O)=O)c(OCC2CCOCC2)c1 [Example 15, 2-[({2-[4-(3,3-Dimethylbut-1-yn-1-yl)-2-(tetrahydro-2H-pyran-4-ylmethoxy)phenyl]ethyl}sulfonyl)amino]benzenesulfonamide]	< 2.5	17.1
NS(=O)(=O)c1cc(CO)ccc1NS(=O)(=O)CCc1ccc(Cl)cc1OCC1CCOCC1 [Example 16, 2-[({2-[4-chloro-2-(tetrahydro-2H-pyran-4-ylmethoxy)phenyl]ethyl}sulfonyl)amino]-5-(hydroxymethyl)benzenesulfonamide]	5.6	29
NS(=O)(=O)c1cc(CO)ccc1NS(=O)(=O)CCc1ccc(F)cc1OCC1CCOCC1 [Example 17, 2-[({2-[4-fluoro-2-(tetrahydro-2H-pyran-4-ylmethoxy)phenyl]ethyl}sulfonyl)amino]-5-(hydroxymethyl)benzenesulfonamide]	19.5	214
